Assay results: patent US20240269298A1, “PHOSPHONYL DERIVATIVE, AND COMPOSITION AND PHARMACEUTICAL APPLICATION THEREOF” (XIZANG HAISCO PHARMACEUTICAL CO., LTD., priority 2021, published 2024)
Read-outs that look alike come from different tables or passages of the source.

Assays:
[1] = system: NCI-H1975 EGFR-L858R-T790M-C797S cells; assay: Inhibitory activity on proliferation of NCI-H1975 EGFR-L858R-T790M-C797S cells (CellTiter-Glo, 72 h); format: cell-based; conditions: Homo sapiens
Method in brief: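 Cells (1500/well) exposed to graded compound concentrations for 72 h at 37 °C in hygromycin-free RPMI1640 + 10% FBS, 0.1% DMSO vehicle. Viability by CellTiter-Glo luminescence relative to vehicle; IC50 from nonlinear sigmoidal dose-survival fit.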

[2] = biological target: T1, EGFR protein in NCI-H1975 EGFR-L858R-T790M-C797S cells (Homo sapiens, UniProt P00533, C797S/L858R/T790M); assay: Degradation activity on EGFR protein in NCI-H1975 EGFR-L858R-T790M-C797S cells, Method II (western blot, 48 h); format: cell-based; conditions: 48 h incubation, EGFR protein relative to DMSO control
T1 construct: expressed in transfected cells; host or cells: NCI-H1975 EGFR-L858R-T790M-C797S (kept under hygromycin selection)
T1 sequence (P00533 25-1210 T790M/C797S/L858R): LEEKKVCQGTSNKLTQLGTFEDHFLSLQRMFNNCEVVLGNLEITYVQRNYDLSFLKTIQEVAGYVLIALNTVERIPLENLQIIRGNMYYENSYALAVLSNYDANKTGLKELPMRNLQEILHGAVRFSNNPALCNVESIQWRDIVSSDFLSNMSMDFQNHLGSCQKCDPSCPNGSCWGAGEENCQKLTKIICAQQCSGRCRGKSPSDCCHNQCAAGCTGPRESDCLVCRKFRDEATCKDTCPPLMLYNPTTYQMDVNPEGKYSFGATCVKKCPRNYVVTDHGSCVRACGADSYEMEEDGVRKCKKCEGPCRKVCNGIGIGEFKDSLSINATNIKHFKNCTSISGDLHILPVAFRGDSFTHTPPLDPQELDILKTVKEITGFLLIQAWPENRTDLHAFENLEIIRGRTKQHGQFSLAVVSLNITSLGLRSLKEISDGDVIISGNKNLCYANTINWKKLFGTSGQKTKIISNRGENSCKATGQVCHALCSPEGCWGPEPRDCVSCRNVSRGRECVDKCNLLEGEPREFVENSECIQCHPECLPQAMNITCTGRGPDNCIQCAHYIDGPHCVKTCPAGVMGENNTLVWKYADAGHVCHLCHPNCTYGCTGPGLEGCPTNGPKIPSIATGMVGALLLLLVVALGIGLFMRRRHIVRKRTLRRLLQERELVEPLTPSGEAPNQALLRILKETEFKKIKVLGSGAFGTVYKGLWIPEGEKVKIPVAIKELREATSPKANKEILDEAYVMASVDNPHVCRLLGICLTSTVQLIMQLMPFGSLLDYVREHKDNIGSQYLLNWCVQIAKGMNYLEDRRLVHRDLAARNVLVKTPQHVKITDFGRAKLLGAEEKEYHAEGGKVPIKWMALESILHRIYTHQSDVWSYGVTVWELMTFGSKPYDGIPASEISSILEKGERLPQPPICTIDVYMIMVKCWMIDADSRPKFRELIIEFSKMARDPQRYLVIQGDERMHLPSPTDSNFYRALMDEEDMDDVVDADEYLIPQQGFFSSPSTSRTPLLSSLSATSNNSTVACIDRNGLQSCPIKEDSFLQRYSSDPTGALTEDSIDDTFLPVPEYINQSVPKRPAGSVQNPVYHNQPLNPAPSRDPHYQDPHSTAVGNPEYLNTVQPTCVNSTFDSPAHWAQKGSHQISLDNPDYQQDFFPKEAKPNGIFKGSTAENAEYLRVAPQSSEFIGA
Description: Protein sample preparation: NCI-H1975 EGFR-L858R-T790M-C797S cells were cultured in an incubator at 37° C. with 5% CO2, and the culture medium was RPMI1640+10% FBS+100 μg/mL hygromycin. The cells in the logarithmic phase were collected, and the cell suspension was adjusted to an appropriate concentration with a hygromycin-free culture medium, plated on a 6-well plate at a density of 350000 cells/well and a volume of 2 mL, and cultured overnight in an incubator at 37° C. with 5% CO2. The next day, the compounds at different concentrations were added. DMSO control wells were provided, wherein the concentration of DMSO in all wells was 0.1%. The 6-well plate was cultured in an incubator at 37° C. with 5% CO2 for 48 h, and then 30 μL of RIPA lysates (Beyotime, Cat. P0013B) containing protease inhibitors (Beyotime, Cat. P0013B) were added. The mixtures were lysed on ice for 30 min. Centrifugation was carried out at 13000 rpm/min at 4° C. for 20 minutes to collect protein supernatant samples, and protein quantification was performed by the BCA method. Western Blot detection samples were prepared.
Western blot detection: 20 μg of protein samples were added to each well, subjected to polyacrylamide gel electrophoresis and transferred to a membrane, and then diluted anti-EGFR (CST, Cat. 4267S) and […] (Kangchen, Cat. KC-5G4) antibodies were added and incubated overnight at 4° C. After washing the membrane, diluted goat anti-rabbit (Licor, Cat. 926-32211) and goat anti-mouse (Licor, Cat. 926-68070) antibodies were added and incubated in the dark for 45 min. Scanning and detection at wavelengths of 700 nm and 800 nm were performed with a far-infrared imaging system (Odyssey).
According to formula (3), the expression level of EGFR protein in the cells relative to the DMSO control group was calculated after incubation with different concentrations of compounds. wherein EGFRcompound was the fluorescence value of EGFR protein after incubation with compounds, and EGFRvehicle was the fluorescence value of EGFR protein in the DMSO control group. Using the Origin 9.2 software, the drug concentration DC50 values when the expression level of EGFR protein was 50% relative to the DMSO control group were calculated.

[3] = system: NCI-H1975 (EGFR-L858R-T790M) cells; assay: Inhibitory activity on proliferation of NCI-H1975 (EGFR-L858R-T790M) cells (CTG, 72 h); format: cell-based; conditions: Homo sapiens
Method in brief: (§1)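 Cells plated at 1000/well (NCI-H1975, RPMI1640+10% FBS) or 3000/well (A431, DMEM+10% FBS), dosed next day with compounds (0.1% DMSO final) for 72 h at 37 °C, 5% CO2. Viability by CTG luminescence, normalised to vehicle control; IC50 from nonlinear-regression dose-survival curves.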

[4] = Pharmacokinetic test in mice; format: in vivo; conditions: male, ICR, mouse, po, administration i.g. (10 mg/kg), plasma
Method in brief: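 Male ICR mice (20-25 g), fasted 12-14 h before dosing and fed 4 h after, received a single intravenous or intragastric dose. Orbital plasma sampled from 0 to 24 h (5 min-24 h points); LC-MS/MS quantitation for PK parameters and bioavailability.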

A431 (EGFR-WT) cells = assay: Inhibitory activity on proliferation of A431 (EGFR-WT) cells (CTG, 72 h); format: cell-based; conditions: Homo sapiens, A-431
Method in brief: as §1

[5] = read-out: IC50 (value in brackets)

IC50 ([1]; read-out: IC50 (class symbol))	IC50 ([1]; read-out: IC50 (value))	DC50 [2]	IC50 ([3]; read-out: IC50 (class symbol))	IC50 [3, 5]	AUC [4]	half-life [4]	IC50 (A431 (EGFR-WT) cells)	AUC(0-t) [4]	Structure (SMILES)
< 200 nM	152 nM	< 100 nM	100 to 500 nM	150 nM	87900 ng·h/mL	9.49 h	≥ 10000 nM	–	COc1cc(N2CCC(CN3CCN(c4ccc5c(c4)C(=O)N(C4CCC(=O)NC4=O)C5=O)CC3)CC2)c(-c2cnn(C)c2)cc1Nc1ncc(Cl)c(Nc2ccc(-c3ccccc3F)cc2P(C)(C)=O)n1 (stereo not drawn) [Compound 102, 5-(4-((1-(4-((5-chloro-4-((3-(dimethylphosphoryl)-2′-fluoro-[1,1′-biphenyl]-4-yl)amino)pyrimidin-2-yl)amino)-5-methoxy-2-(1-methyl-1H-pyrazol-4-yl)phenyl)piperidin-4-yl)methyl)piperazin-1-yl)-2-(2,6-dioxopiperidin-3-yl)isoindoline-1,3-dione]
< 200 nM	82 nM	< 100 nM	< 100 nM	54 nM	–	–	≥ 10000 nM	47300 ng·h/mL	COc1cc(N2CCN(C[C@H]3CCN(c4ccc5c(c4)C(=O)N(C4CCC(=O)NC4=O)C5=O)C3)CC2)c(-c2cnn(C)c2)cc1Nc1ncc(Br)c(Nc2ccc(-c3ccccc3)cc2P(C)(C)=O)n1 (stereo partly drawn) [Compound 104, 5-((R)-3-((4-(4-((5-bromo-4-((3-(dimethylphosphoryl)-[1,1′-biphenyl]-4-yl)amino)pyrimidin-2-yl)amino)-5-methoxy-2-(1-methyl-1H-pyrazol-4-yl)phenyl)piperazin-1-yl)methyl)pyrrolidin-1-yl)-2-(2,6-dioxopiperidin-3-yl)isoindoline-1,3-dione]
